Measured values reported in publication PMC8789064, “High-Throughput-Methyl-Reading (HTMR) assay: a solution based on nucleotide methyl-binding proteins enables large-scale screening for DNA/RNA methyltransferases and demethylases” (Nucleic Acids Research, 2021).
Read-outs that look alike come from different tables or passages of the source. Blank lines part the entries; values can stand above or below the molecule they belong to.

What was measured:
tri-MBD1 = target: T1, tri-MBD1 (Homo sapiens, UniProt Q9UIS9); assay: Counter screen: binding of methyl-binding protein tri-MBD1 without enzyme
T1 construct: Genes encoding tri-MBD1 (tandem three MBD1 1–105 ORF); made in house; host or cells: E. coli BL21(DE3) codon plus RIPL
T1 sequence (Q9UIS9 with tags, fused parts or gaps): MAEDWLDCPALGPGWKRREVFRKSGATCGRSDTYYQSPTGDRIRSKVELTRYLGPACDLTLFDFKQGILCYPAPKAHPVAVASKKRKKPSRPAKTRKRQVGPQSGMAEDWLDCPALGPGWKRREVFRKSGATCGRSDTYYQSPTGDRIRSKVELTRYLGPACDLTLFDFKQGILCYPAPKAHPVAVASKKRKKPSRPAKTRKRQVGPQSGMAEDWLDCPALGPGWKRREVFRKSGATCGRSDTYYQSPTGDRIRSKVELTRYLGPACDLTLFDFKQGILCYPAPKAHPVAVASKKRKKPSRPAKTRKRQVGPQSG
Source text: (§1) False-positive compounds should be abandoned during the high-throughput screening. […] This entails replacing half of the substrate oligonucleotide with product oligonucleotide in the absence of the enzyme and adding the methyl-binding protein into the wells. The FP signal can then be measured according to the above steps.
(§2) Finally, we performed high-throughput screening against DNMT1 and ALKBH5 for an in-house library of 2000 compounds. […] Half of the substrate oligonucleotide was replaced with the product (chemical synthetic) in the assay (the enzyme was removed), in which case the false-positive compounds would still influence the FP signal value while the true hits would not. […] We performed a cofactor-competitive assay to evaluate the biological activity and mechanism of action of hit compounds.

METTL3/14 = target: T2, METTL3/14 (Homo sapiens, UniProt Q86U44); assay: HTMR (FP-based) METTL3/METTL14 methylation assay; format: biochemical; conditions: from IC50 vs SAM concentration line, Cheng-Prusoff
T2 construct: The full-length METTL3 and METTL14 plasmids were obtained from Professor Ping Yin; made in house; host or cells: E. coli BL21(DE3) codon plus RIPL
Experimental: (§3) To start the assay, the binding curve of the substrate oligonucleotide and the product oligonucleotide (chemical synthetic) were titrated to determine the proper concentration of methyl-binding proteins. The final NaCl conditions of DNMT1, TET2, METTL3/14 and ALKBH5 were 400, 300, 250 and 250 mM, respectively. The assays could be performed in 10 μl + 10 μl, 20 μl + 20 μl (as in this study), or other formats in a black 384-well plate (Corning #3575). The former is the reaction volume containing enzyme, oligonucleotide, and cofactors, while the latter is the volume of methyl-binding protein. The reaction was initiated by the addition of the enzymes or the substrates and terminated by the addition of methyl-binding proteins. The FP signals were then measured in fluorescence polarization standard mode by EnVision Multilabel Reader (PerkinElmer) after 10–15 min of incubation. The plate can be repeatedly measured. […] All data were analyzed in GraphPad Prism 7.0.
The enzymes, oligonucleotides, and cofactors were diluted in a reaction buffer containing 20 mM HEPES, pH 7.4, 1 mM DTT and 0.4 U/μl RNase inhibitor (BBI Life sciences). […] After 10–15 min of incubation, the plate was read by Envision (PerkinElmer).
(§4) All the curves were plotted in the Graphpad prism 7.0. And the IC50 values were determined by the log(inhibitor) versus response—variable slope (four parameters) model in Graphpad prism 7.0. […]

DNMT1(351–1600) = target: T3, DNMT1(351–1600) (Homo sapiens, UniProt P26358); assay: HTMR (FP-based) DNMT1 methylation assay; format: biochemical
T3 construct: The human DNMT1 (351–1600) gene with N terminal 6xHis tag and a TEV cleavage site; 6xHis (N); TEV cleavage site (N); made in house; host or cells: Spodoptera frugiperda Sf9 (baculovirus)
Experimental: To start the assay, the binding curve of the substrate oligonucleotide and the product oligonucleotide (chemical synthetic) were titrated to determine the proper concentration of methyl-binding proteins. […] The assays could be performed in 10 μl + 10 μl, 20 μl + 20 μl (as in this study), or other formats in a black 384-well plate (Corning #3575). The former is the reaction volume containing enzyme, oligonucleotide, and cofactors, while the latter is the volume of methyl-binding protein. The reaction was initiated by the addition of the enzymes or the substrates and terminated by the addition of methyl-binding proteins. The FP signals were then measured in fluorescence polarization standard mode by EnVision Multilabel Reader (PerkinElmer) after 10–15 min of incubation. […] All data were analyzed in GraphPad Prism 7.0.
The reaction components (enzyme, oligonucleotide and cofactors) were diluted in a reaction buffer containing 20 mM HEPES, pH 7.4, 1 mM EDTA and 1 mM DTT. […] This was followed by incubation for 10–15 min at RT (room temperature), after which the plate was read by EnVision (PerkinElmer).

DNMT1 = target: T4, DNMT1 (Homo sapiens, UniProt P26358); assay: DNMT1 FP binding assay (DNA binding of the enzyme)
T4 construct: The human DNMT1 (351–1600) gene with N terminal 6xHis tag and a TEV cleavage site; 6xHis (N); TEV cleavage site (N); made in house; host or cells: Spodoptera frugiperda Sf9 (baculovirus)
Experimental: (§5) The FP binding assay of DNMT1 and METTL3/14 was performed in a buffer containing 20 mM HEPES, pH 7.4, and 1 mM DTT. The FP binding assay of TET2 and ALKBH5 was performed in the reaction buffer that removes the NaCl. At high concentrations of NaCl (over 100 mM), weak FP signals were detected for the enzymes.

ALKBH5(66–292) [1] = target: T5, ALKBH5(66–292) (Homo sapiens, UniProt Q6P6C2); assay: Thermal shift assay; format: binding; conditions: 5 μM ALKBH5, 100 μM compound (molar ratio 1:20); read-out: Tm shift (ΔTm) of ALKBH5
T5 construct: The untagged MBD1 (1–105) and ALKBH5 (66–292) catalytic domain genes were subcloned; made in house; host or cells: E. coli BL21(DE3) codon plus RIPL
Experimental: The thermal shift assay was performed with a QuantStudio 6 Flex real-time PCR machine (Applied Biosystems) with a buffer containing 20 mM HEPES, pH 7.4 and 100 mM NaCl. The final system was 20 μl, which contained 5 μM ALKBH5(66–292) protein, 1:1000 dilution of SYPRO Orange dye (purchased from Invitrogen, 5000× stock in DMSO), and DMSO or 100 μM compounds (final DMSO concentration was 0.1%). The samples were heated from 25 to 95°C (2.5°C/min). All samples were performed in triplicate and data were analyzed by Protein Thermal Shift Software version 1.3 (Applied Biosystems).

ALKBH5 [2] = target: T6, ALKBH5 (Homo sapiens, UniProt Q6P6C2); assay: ALKBH5 FP binding assay (RNA binding of the enzyme)
T6 construct: The untagged MBD1 (1–105) and ALKBH5 (66–292) catalytic domain genes were subcloned; made in house; host or cells: E. coli BL21(DE3) codon plus RIPL
Experimental: as §5

ALKBH5(66–292) [3] = target: T5, ALKBH5(66–292); assay: NMR CPMG and STD experiments; format: binding; conditions: 200 μM compound, 5 μM ALKBH5
Experimental: Saturation transfer difference (STD) and Carr-Purcell-Meiboom-Gill (CPMG) experiments were performed to investigate the interaction between the compound and the protein, as previously described ([65]). All NMR spectra were acquired on a Bruker Avance III 600 MHz NMR spectrometer equipped with a cryoprobe (Bruker Biospin, Germany). The 5 μM ALKBH5(66–292) protein and 200 μM compound were dissolved into a phosphate buffer containing 20 mM NaH2PO4, 20 mM Na2HPO4, pH 7.4, 100 mM NaCl, 95% D2O, 5% DMSO-d6 and then used in NMR data acquisition. Transverse relaxation-edited spectra were recorded using the water-suppressed CPMG pulse sequence. Sixty-four transients were collected into 48 076 data points with a spectral width of 8.0 kHz and an acquisition time of 3.0 s. STD spectrum was recorded using the pulse sequence of stddiffgp19.3 with water suppression (3–9–19 WATERGATE). The on and off resonance excitation positions were defined at –0.17 and 33 ppm, respectively. The bandwidth for the saturation pulse was set to 42.4 Hz. One hundred and twenty-eight transients were collected into 32,768 data points with a spectral width of 9.6 kHz and an acquisition time of 1.71 s.

TET2 = target: T7, TET2 (Homo sapiens, UniProt Q6N021); assay: HTMR (FP-based) TET2 demethylation assay; format: biochemical
T7 construct: made in house; host or cells: E. coli BL21(DE3) codon plus RIPL
Experimental: To start the assay, the binding curve of the substrate oligonucleotide and the product oligonucleotide (chemical synthetic) were titrated to determine the proper concentration of methyl-binding proteins. […] The reaction was initiated by the addition of the enzymes or the substrates and terminated by the addition of methyl-binding proteins. The FP signals were then measured in fluorescence polarization standard mode by EnVision Multilabel Reader (PerkinElmer) after 10–15 min of incubation. […] Additionally, this experiment must avoid strong light exposure.
The reaction buffer containing 20 mM HEPES, pH 8.0, 100 mM NaCl, 1 mM DTT, 1 mM ATP, 1 mM 2-OG, 2 mM ascorbic acid and 100 μM Fe2(NH4)2(SO4)2. Fe^2+ is the last to be added. The reaction contained 40 nM TET2 and 20 nM FAM-labeled fully-methylated DNA occurred at 37°C for 60 min. Next, 20 μl tri-MBD1 (500 nM as final concentration) protein was diluted in 20 mM HEPES, pH 7.4, 500 mM NaCl and transferred into wells to end the reaction. After 10–15 min of incubation, the plate was read by Envision (PerkinElmer).

YTHDF1 = target: T8, YTHDF1 (Homo sapiens, UniProt Q9BYJ9); assay: Counter screen: binding of methyl-binding protein YTHDF1 without enzyme; conditions: ALKBH5 assay format, enzyme removed
T8 construct: YTHDF1 (361–559), YTHDF2 (380–579) and YTHDC1 (355–492) were chemically synthesized; made in house; host or cells: E. coli BL21(DE3) codon plus RIPL
T8 sequence (Q9BYJ9 361-559): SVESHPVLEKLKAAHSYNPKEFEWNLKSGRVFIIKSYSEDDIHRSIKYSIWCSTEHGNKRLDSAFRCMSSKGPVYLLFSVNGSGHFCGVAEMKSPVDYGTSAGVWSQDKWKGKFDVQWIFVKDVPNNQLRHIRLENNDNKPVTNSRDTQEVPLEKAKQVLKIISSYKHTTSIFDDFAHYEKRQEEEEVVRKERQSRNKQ
Source text: as §1, §2

ALKBH5 [4] = target: T6, ALKBH5; assay: HTMR (FP-based) ALKBH5 demethylation assay; format: biochemical; conditions: different concentrations of 2-OG
Experimental: as §3, with “The reaction was initiated by the addition of the enzymes or the substrates and terminated by the addition of methyl-binding proteins.” left out
The reaction buffer containing 20 mM HEPES, pH 7.4, 250 mM NaCl, 200 μM 2-OG, 300 μM ascorbic acid, and 50 μM […]. […] The plate can then be read immediately or after 10–15 min of incubation due to an equal concentration of NaCl. After this, the plate can be read by EnVision (PerkinElmer).
as §4

[5] = target: T9, tri-MBD1 (GST-MBD1-MBD1-MBD1) (UniProt Q9UIS9 1-105); assay: fluorescence polarization; 400 mM NaCl, 20 nM DNMT1 present; FP, 384-well; methyl readers at final NaCl 400 mM (DNMT1 assay), 300 mM (TET2), 250 mM (METTL3/14, ALKBH5), 10-15 min; DNMT1 and METTL3/14 binding in 20 mM HEPES pH 7.4, 1 mM DTT with varied NaCl; TET2 and ALKBH5 in reaction buffer without NaCl; temperature not stated; conditions: protein: recombinant; tags: N-terminal GST (pGEX-6P-1); label: 5'-FAM top strand; blunt
T9 chain: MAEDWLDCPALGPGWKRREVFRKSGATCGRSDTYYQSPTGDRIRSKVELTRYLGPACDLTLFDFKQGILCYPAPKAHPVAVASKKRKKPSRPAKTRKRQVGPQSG

GST-YTHDF1 YTH domain = target: T10, GST-YTHDF1 YTH domain (UniProt Q9BYJ9 361-559); assay: fluorescence polarization; 250 mM NaCl; over 100-fold selectivity for m6A over unmodified RNA; FP, 384-well; methyl readers at final NaCl 400 mM (DNMT1 assay), 300 mM (TET2), 250 mM (METTL3/14, ALKBH5), 10-15 min; DNMT1 and METTL3/14 binding in 20 mM HEPES pH 7.4, 1 mM DTT with varied NaCl; TET2 and ALKBH5 in reaction buffer without NaCl; temperature not stated; conditions: protein: recombinant; tags: N-terminal GST; label: 5'-FAM; single strand
T10 sequence: T8 sequence (Q9BYJ9 361-559)

T6 sequence (Q6P6C2 66-292): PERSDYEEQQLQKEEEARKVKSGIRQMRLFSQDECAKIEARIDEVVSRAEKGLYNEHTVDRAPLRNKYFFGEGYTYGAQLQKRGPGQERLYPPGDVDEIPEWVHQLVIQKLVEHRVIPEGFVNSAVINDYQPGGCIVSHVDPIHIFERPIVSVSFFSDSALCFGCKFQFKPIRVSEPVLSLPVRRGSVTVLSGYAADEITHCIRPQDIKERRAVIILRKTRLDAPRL
T3 sequence (P26358 351-1600): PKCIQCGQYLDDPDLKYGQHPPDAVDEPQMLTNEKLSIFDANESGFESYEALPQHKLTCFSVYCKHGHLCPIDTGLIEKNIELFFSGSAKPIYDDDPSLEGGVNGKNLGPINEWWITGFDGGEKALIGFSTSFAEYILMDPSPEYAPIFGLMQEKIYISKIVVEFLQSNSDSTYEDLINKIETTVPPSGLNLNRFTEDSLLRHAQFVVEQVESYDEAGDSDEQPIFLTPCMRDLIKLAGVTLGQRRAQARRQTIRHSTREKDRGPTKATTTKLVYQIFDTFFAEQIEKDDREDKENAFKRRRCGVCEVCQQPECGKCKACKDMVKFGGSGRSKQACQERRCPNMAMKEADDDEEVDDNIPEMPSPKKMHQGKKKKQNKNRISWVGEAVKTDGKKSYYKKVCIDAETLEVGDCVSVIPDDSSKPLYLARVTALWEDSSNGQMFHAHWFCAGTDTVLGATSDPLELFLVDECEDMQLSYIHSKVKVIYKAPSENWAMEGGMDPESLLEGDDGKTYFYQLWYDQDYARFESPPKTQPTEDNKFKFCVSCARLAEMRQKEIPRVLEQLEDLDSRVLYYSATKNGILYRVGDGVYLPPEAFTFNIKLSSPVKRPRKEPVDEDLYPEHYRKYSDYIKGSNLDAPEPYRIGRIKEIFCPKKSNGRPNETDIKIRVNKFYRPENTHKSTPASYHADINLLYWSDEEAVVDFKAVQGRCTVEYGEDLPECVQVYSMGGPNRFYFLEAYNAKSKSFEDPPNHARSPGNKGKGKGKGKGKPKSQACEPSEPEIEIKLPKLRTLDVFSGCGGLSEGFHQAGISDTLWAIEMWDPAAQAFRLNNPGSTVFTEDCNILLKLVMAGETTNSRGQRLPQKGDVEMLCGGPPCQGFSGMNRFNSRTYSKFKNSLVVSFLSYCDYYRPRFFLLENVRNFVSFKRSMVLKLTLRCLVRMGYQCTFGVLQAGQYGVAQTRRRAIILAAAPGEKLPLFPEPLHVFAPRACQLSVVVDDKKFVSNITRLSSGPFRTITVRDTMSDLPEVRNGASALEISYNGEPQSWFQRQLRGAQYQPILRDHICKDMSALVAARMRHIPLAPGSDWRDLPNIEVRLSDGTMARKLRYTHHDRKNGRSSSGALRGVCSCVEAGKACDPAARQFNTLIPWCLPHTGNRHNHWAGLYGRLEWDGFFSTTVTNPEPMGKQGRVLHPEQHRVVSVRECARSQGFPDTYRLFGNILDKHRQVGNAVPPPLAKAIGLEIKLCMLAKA
T4 sequence (P26358 351-1600): as above
T5 sequence (Q6P6C2 66-292): as the sequence (Q6P6C2 66-292) above
T2 sequence (Q86U44 whole entry): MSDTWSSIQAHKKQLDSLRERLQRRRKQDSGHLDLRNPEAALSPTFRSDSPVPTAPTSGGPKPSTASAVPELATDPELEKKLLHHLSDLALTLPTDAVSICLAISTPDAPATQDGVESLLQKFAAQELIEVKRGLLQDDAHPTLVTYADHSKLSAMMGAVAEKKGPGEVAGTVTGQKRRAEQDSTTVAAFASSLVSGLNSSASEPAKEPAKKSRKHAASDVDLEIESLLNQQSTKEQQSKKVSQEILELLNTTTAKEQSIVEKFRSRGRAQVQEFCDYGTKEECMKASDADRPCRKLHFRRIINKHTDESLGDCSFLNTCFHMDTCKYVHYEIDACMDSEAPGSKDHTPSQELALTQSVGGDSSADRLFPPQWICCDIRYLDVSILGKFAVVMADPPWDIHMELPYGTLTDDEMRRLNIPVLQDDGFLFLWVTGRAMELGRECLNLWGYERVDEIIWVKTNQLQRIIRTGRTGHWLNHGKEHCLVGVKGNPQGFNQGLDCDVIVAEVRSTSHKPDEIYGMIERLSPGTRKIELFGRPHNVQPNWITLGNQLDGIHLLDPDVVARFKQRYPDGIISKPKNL

Effect on binding of tri-MBD1 (tri-MBD1; high concentration (over 50 μM)): can inhibit the binding of tri-MBD1
Molecule: O=C(O)c1ccc(O)c2ncccc12 [IOX1, reference compound]

Ki (METTL3/14): 2.06 ± 2.8 µM
Molecule: Nc1ncnc2c1ncn2[C@@H]1O[C@H](CSCC[C@H](N)C(=O)O)[C@@H](O)[C@H]1O [SAH]

Interference with the assay (counter screen) (tri-MBD1; DNMT1 assay format, enzyme removed): didn’t interference the assay | Mechanism with respect to cofactor SAM (DNMT1(351–1600); cofactor-competitive assay, increasing SAM): SAM-noncompetitive | IC50 (DNMT1(351–1600); different concentrations of SAM, read-out: IC50 against DNMT1): ~67 µM | Effect on DNA binding of DNMT1 (DNMT1): competed with the binding of DNA | Effect on DNA binding of DNMT1 (DNMT1; listed as Ellagic acid): disturbed the DNA-DNMT1
Molecule: O=c1oc2c(O)c(O)cc3c(=O)oc4c(O)c(O)cc1c4c23 [ellagic acid]

The remaining lines, values behind:

Molecule: O=c1c(O)c(-c2ccc(O)c(O)c2)oc2cc(O)cc(O)c12 [quercetin]
ΔTm at 100 µM (ALKBH5(66–292) [1]): 2.57 °C | Effect on RNA binding of ALKBH5 (ALKBH5 [2]): did not affect the RNA binding of ALKBH5 | Effect on RNA binding of ALKBH5 (ALKBH5 [2]; listed as Quercetin): didn’t affect the RNA binding | Direct binding to ALKBH5 catalytic domain (CPMG, STD) (ALKBH5(66–292) [3]): strongly bound | Activity during the TET2 demethylation reaction (TET2): high activity | Interference with the assay (counter screen) (YTHDF1): didn’t interference the assay | Change of IC50 in the ALKBH5 reaction with 2-OG concentration (ALKBH5 [4]): did not significantly change

B1: fully-methylated DNA [M/M] (dsDNA)
DNA 1: TACGACCAGGAT
DNA 2: ATCCTGGTCGTA
modifications: 5mC at position 3 of top strand and position 9 of bottom strand
binding result [5]: binds

Molecule: GAACCGGACUGUCUUA (ssRNA, m6A at position 8) [m6A-modified RNA]
binding result (GST-YTHDF1 YTH domain): binds
